Measurements from publication PMC5458179, “Oxidative DNA double strand breaks and autophagy in the antitumor effect of sterically hindered platinum(II) complexes in NSCLCs” (Oncotarget, 2017).

Key:
[1] = tested on: L02 normal liver cell line; assay: MTT cytotoxicity assay; type: cell-based; conditions: 48 h drug exposure
Description: (§1) The results reveal that the steric hindrance plays a significant role in the cytotoxicity of complex 3.
(§2) Human cancer cell lines HepG2, SGC-7901, HCT-116, A549, NCI-H1299 and MCF-7 as well as normal liver cell line L02 were purchased from the Cell Bank of Shanghai Institute of Cell Biology. Among them, MCF-7, HepG2 cells were cultured at 37 °C in 5% CO2 with DMEM supplemented with 10% fetal bovine serum (FBS) (Hyclone, Lifescience, USA) and 1% penicillin/streptomycin (Beyotime, Nantong, China), while HCT-116, SGC-7901, A549, NCI-H1299 and L02 cells were cultured at 37 °C in 5% CO2 with RPMI-1640 supplemented with 10% FBS and 1% penicillin/streptomycin. Cells were passed every 2 days and restarted from frozen stocks upon reaching pass number 20.
(§3) In vitro cytotoxicity of the platinum compounds against human hepatocellular carcinoma (HepG-2), gastric carcinoma (SGC-7901), non-small-cell lung cancer (A549), and colorectal cancer (HCT-116) cell lines were measured by the MTT assays. Briefly, the cells were seeded in 96-well cultured plates at a density of 5000 cells/well. After overnight incubation (16 h), the cells were treated with the platinum complexes. After 48 h of incubation, 10 μL of a freshly diluted 3-(4,5-dimethyl-2-thiazolyl)-2,5-diphenyl-2H-tetrazolium bromide (MTT) solution (5 mg/mL) were added to each well and the plates were incubated at 37 °C in a humidified 5% CO2 atmosphere for 4 h. At the end of the incubation period the medium was removed and the formazan product was dissolved in 150 μL of DMSO. The cell viability was evaluated by measurement of the absorbance at 490 nm, using an Absorbance Reader (BioRad). IC50 values (compound concentration that produces 50% of cell growth inhibition) were calculated from curves constructed by plotting cell survival inhibitory rate (%) versus drug concentration logarithm. All experiments were repeated in three times. The reading values were converted to the percentage of control (% cell survival). Cytotoxic effects were expressed as IC50 values.

NCI-H1299 = assay: MTT cytotoxicity assay; type: cell-based, human; conditions: 48 h drug exposure, read-out: IC50 NCI-H1299
Description: as §1
(§4) The effects of complex 3 on the viability of NSCLC cancer cells including A549 and NCI-H1299 were detected respectively via MTT assays at time points of 12, 24, 48 and 72 h (Figure 2A). The results shown that complex 3 could inhibit the viability of the NSCLC cells.
as §2, §3

A549 = assay: MTT cytotoxicity assay; type: cell-based, human; conditions: 48 h drug exposure
Description: as §1, §4, §2, §3

HCT-116 = assay: MTT cytotoxicity assay; type: cell-based, human; conditions: 48 h drug exposure
Description: as §1, §2, §3

HepG2 = assay: MTT cytotoxicity assay; type: cell-based, human; conditions: 48 h drug exposure
Description: as §1, §2, §3

SGC-7901 = assay: MTT cytotoxicity assay; type: cell-based, human; conditions: 48 h drug exposure
Description: as §1, §2, §3

p-Akt = assay: Western blot of PI3K/Akt/mTOR pathway; type: cell-based, human; conditions: A549, 10 μM, 24 h, relative to control
Text: (§5) The mammalian target of rapamycin (mTOR) kinase is used to regulate autophagy as controlled though oxidative stress, hypoxia and growth receptors. The phosphatidylinosital-3 kinase (PI3K)/Akt signaling pathway activates mTOR through phosphorylating and inactivating the tuberous sclerosis complex (TSC)1–TSC2 complex. Inhibition of mTOR results in activation of autophagy. […] At the same time, levels of the p-Akt protein decreased to 0.95-, 1.02-, and 0.39-folds, respectively (Figure 7B). […] As a results, the administration of complex 3 decreased levels of proteins in PI3K/Akt/mTOR signaling pathways.
(§6) Lysates were centrifuged at 12,000 g for 0.5 h at 4°C. The concentrations of total proteins were measured using the BCA assay method with Varioskan spectrofluorometer and spectrophotometer (Thermo, Waltham, MA) at 562 nm. Protein (20–100 μg) prepared from the indicated cells was loaded per lane and electrophoresed in 8% or 10% sodium dodecyl sulfate polyacrylamide gel electrophoresis (SDS-PAGE), and then transferred onto polyvinylidene difluoride (PVDF) Immobilon-P membrane (Bio-Rad, USA) using a transblot apparatus (Bio-Rad, USA). The membranes were blocked with 5% (w/v) non-fat milk at 0.5 h at 37°C, followed by overnight incubation at 4°C with primary antibodies diluted in PBST. After washing with PBST, the membranes were incubated for 1 h with an IRDye´800 conjugated secondary antibody diluted 1:20000 in PBST, and the labeled proteins were detected with an Odyssey Scanning System (Li-COR., Lincoln, Nebraska, USA).

p-mTOR = assay: Western blot of PI3K/Akt/mTOR pathway; type: cell-based, human; conditions: A549, 10 μM, 24 h, relative to control
Text: as §5, §6

MCF-7 = assay: MTT cytotoxicity assay; type: cell-based, human; conditions: exposed for 48 h
Description: as §2
In vitro cytotoxicity of the platinum compounds against human hepatocellular carcinoma (HepG-2), gastric carcinoma (SGC-7901), non-small-cell lung cancer (A549), and colorectal cancer (HCT-116) cell lines were measured by the MTT assays. Briefly, the cells were seeded in 96-well cultured plates at a density of 5000 cells/well. After overnight incubation (16 h), the cells were treated with the platinum complexes. […] The cell viability was evaluated by measurement of the absorbance at 490 nm, using an Absorbance Reader (BioRad). […] The reading values were converted to the percentage of control (% cell survival). Cytotoxic effects were expressed as IC50 values.

pET28a plasmid DNA = assay: Agarose gel electrophoresis of plasmid DNA; conditions: 0, 20, 80, 320, 640 μM
Description: The tested complexes were incubated with DNA at different concentrations.
Appropriate dilutions of tested complexes were made, and the required volumes of solutions were added to achieve a set of concentrations in the range of 0–100 mm; pET22b DNA (5 mL, 0.20 mg) was added to each tube, and the mixtures of platinum complexes and pET22b plasmid DNA were then incubated at 37°C for 6 or 24 h. Afterward, the agarose gel (made up to 1% w/v) containing ethidium bromide was prepared with TA buffer (50 mm Tris-acetate, pH 7.5). The mixtures with loading buffer (1 mL) underwent electrophores is in agarose gel in TA buffer at 100 V for 60 min. Bands were imaged using a Molecular Imager (Bio-Rad, USA) under UV light.

A549 cells [2] = assay: Autophagy by acridine orange flow cytometry (AVOs); type: cell-based, human; conditions: A549, NAC pretreatment
Description: (§7) The role of complex 3-induced autophagy in cell death was further analyzed (Figure 6). When A549 cancer cells were treated with complex 3 of 10 μM, the protein expression of LC3-II was increased (Figure 6A). […] Treatment with complex 3 for 24 h caused a 4.5-folds increase in cells undergoing autophagy (Figure 6C). […] Moreover, Bax and Bcl-2 expressions were measured by western blot analysis of whole cell lysates.
(§8) To investigate the role of ROS in complex 3-induced cell death, the level of intracellular H2O2 was measured. […] Exposure of A549 cells to NAC reduced levels of LC3-II from 2.3- to 1.5-folds (Figure 8B). […] In parallel, the complex 3-induced increase ratio of Bax/Bcl-2 was suppressed by NAC (Figure 8E).
Flow cytometry with acridine orange staining as described in a previous study was used to detect and quantify the AVOs, one of the characteristicsof autophagy. At the end of individual experiments, A549 cells were collected in phenol red-free RPMI 1640 medium. Green (FL-1) and red (FL-3) fluorescences of acridine orange were measured using a flow cytometer and CellQuest software (Becton Dickinson, San Jose, CA). The sum of the upper-left and upper-right quadrants of the cytogram was used to estimate the percentage of cells undergoing autophagy.

A549 cells [3] = assay: Quantification of apoptotic cells (annexin V/PI flow cytometry); type: cell-based, human; conditions: A549, NAC pretreatment
Description: as §7, §8
The mode of cell death was analyzed by flow cytometry with annexin V/propidium iodide (PI) double-staining to detect membrane events according to a previous study. After individual treatments, whole cells were collected in 4-(2-hydroxyethyl)-1-piperazineethanesulfonic acid (HEPES) buffer containing 10 mM HEPES (pH 7.4), 140 mM NaCl, and 2.5 mM CaCl2. Cells were subsequently stained with annexin V (2.5 μg/ml) and PI (2 ng/ml) for 20 min, followed by analysis by flow cytometry (Beckman Coulter). Cystograms of the four quadrants in the figure were used to distinguish normal (annexin V^−/PI^−), early apoptotic (annexin V^+/PI^−), late apoptotic(annexin V^+/PI^+), and necrotic cells (annexin V^−/PI^+). The sum of early apoptosis and late apoptosis is presented as total apoptosis.

NCI-H1299 cells = assay: Annexin V-FITC/PI apoptosis assay (flow cytometry); type: cell-based, human; conditions: NCI-H1299, 50 μM for 24 h (figure legend and method: 10 μM)
Description: (§9) Apoptosis is a crucial programmed death form of aging or damaged cells. […] To further explore the impact of complex 3 on long-term clonogenic survival, colony formation assay was performed.
(§10) Annexin V-FITC apoptosis detection kit (Keygen, Jiangsu, China) assay was performed according to the manufacturer's protocol. […] Then the cells were collected, resuspended in binding buffer (pH 7.5, 10 mM HEPES, 2.5 mM CaCl2 and 140 mM NaCl), incubated with Annexin V-FITC and then PI for 10 min in the dark at room temperature, the processed cells were analyzed by flow cytometry (FACSCalibur, Becton Dickinson) and a computer station running Cell-Quest software. (BD Biosciences, Franklin Lakes, NJ).

A549 cells [4] = assay: Annexin V-FITC/PI apoptosis assay (flow cytometry); type: cell-based, human; conditions: A549, 50 μM for 24 h (figure legend and method: 10 μM)
Description: as §9, §10

SMILES | IC50 [1] | IC50 (NCI-H1299) | IC50 (A549) | IC50 (HCT-116) | IC50 (HepG2) | IC50 (SGC-7901) | levels of the p-Akt protein (p-Akt) | amounts of p-mTOR (p-mTOR) | IC50 (MCF-7) | gel electrophoretic mobility of plasmid DNA (pET28a plasmid DNA) | effect of NAC pretreatment on percentage of autophagy (A549 cells [2]) | effect of NAC pretreatment on percentage of apoptosis (A549 cells [3]) | early and median apoptotic cells (NCI-H1299 cells) | late apoptotic cells (NCI-H1299 cells) | early and median apoptotic cells (A549 cells [4])
CC(C)C[NH+]1[C@@H]2CCCC[C@H]2[NH+](CC(C)C)[Pt-2]1([Cl])[Cl] (stereo partly shown) [Complex 1] | 148 ± 10.6 µM | > 100 µM | > 100 µM | 70.5 ± 5.56 µM | 34.1 ± 2.55 µM | 44.6 ± 3.24 µM | – | – | – | – | – | – | – | – | –
CC(C)CN[C@@H]1CCCC[C@H]1N.O=C([O-])CC(=O)[O-].[Pt+2] [Complex 3a, [(1R,2R)-N^1-(2-methylpropyl)-1,2-cyclohexanediamine-N,N’](malonato-O,O’), reference compound] | – | 94.9 ± 6.74 µM | 77.5 ± 5.04 µM | 65.8 ± 4.95 µM | > 100 µM | – | 0.39 folds | 0.69 folds | > 100 µM | no migration was observed | no decreased percentage of autophagy | no decreased percentage | 4.58% | 4.12% | 12.37%
CC(C)C[NH+]1[C@@H]2CCCC[C@H]2[NH+](CC(C)C)[Pt-2]12[O]C(=O)C1(CCC1)C(=O)[O]2 (stereo partly shown) [Complex 4] | > 100 µM | > 100 µM | > 100 µM | > 100 µM | > 100 µM | > 100 µM | – | – | – | – | – | – | – | – | –
CC(C)C[NH+]1[C@@H]2CCCC[C@H]2[NH+](CC(C)C)[Pt-2]12[O]C(=O)C(=O)[O]2 (stereo partly shown) [Complex 2] | > 100 µM | > 100 µM | 28.4 ± 1.45 µM | 37 ± 2.76 µM | > 100 µM | > 100 µM | – | – | – | – | – | – | – | – | –
